In patent US20220009980A1, “TP5, A PEPTIDE INHIBITOR OF ABERRANT AND HYPERACTIVE CDK5/P25 AS TREATMENT FOR CANCER” (The United States of America,as represented by the …, priority 2018, published 2022):

Tests used:
orthotopic glioblastoma = assay: Orthotopic glioblastoma mouse model; type: in vivo; settings: for proliferation rate: 100 μM or 300 μM of TP5; for tumor volume: 100 μM or 300 μM of TP5, FIG. 5
Experimental: The effect of TP5 administration in an orthotopic glioblastoma mouse model additionally was determined. 100 μM or 300 μM of TP5 was administered to the mice and tumor volume and proliferation rate were investigated.

[1] = test system: glioblastoma cell line U251; assay: Viability of glioblastoma cell line U251; type: cell-based; settings: FIG. 1
Experimental: (§1) The viability of glioblastoma cell line U251 following the administration of TP5 (SEQ ID NO: 1) was determined. TP5 scrambled (SEQ ID NO: 2) was used as a control.

[2] = test system: glioblastoma cell line U251; assay: Early and late apoptosis in glioblastoma cell line U251; type: cell-based; settings: FIG. 3
Experimental: The extent of early and late apoptosis in glioblastoma cell line U251 also was determined.

[3] = test system: colorectal carcinoma cell line HT29; assay: DNA damage measured by expression of pH2Ax in HT29; type: cell-based; settings: FIG. 8
[4] = test system: colorectal carcinoma cell line HT29; assay: Viability of colorectal carcinoma cell line HT29; type: cell-based; settings: FIG. 6
Experimental: (§2) The viability of colorectal carcinoma cell line HT29 following the administration of TP5 (SEQ ID NO: 1) was determined. TP5 scrambled (SEQ ID NO: 2) was used as a control.

glioblastoma colonies = assay: Number and viability of glioblastoma colonies; type: cell-based; settings: different amounts of TP5; FIG. 2
Experimental: as §1

[5] = test system: colorectal cancer colonies; assay: Number and viability of colorectal cancer colonies; type: cell-based; settings: different amounts of TP5; FIG. 7
Experimental: as §2

[6] = test system: glioblastoma cell line U251; assay: DNA damage measured by expression of pH2Ax in U251; type: cell-based; settings: FIG. 4
Source text: Although not wishing to be bound by any particular theory, TP5 is believed to increase DNA damage in a dose-dependent manner and impair DNA repair by reducing G2 phase and decreasing the phosphorylation of ATM.

[7] = test system: subcutaneous colorectal cancer; assay: Subcutaneous colorectal cancer mouse model; type: in vivo; settings: FIG. 9
Experimental: The effect of TP5 administration alone or in combination with chemotherapy (Sn38; 7-ethyl-10-hydroxycamptothecin) in a subcutaneous colorectal cancer mouse model additionally was determined. TP5, Sn38, or TP5+Sn38 was administered to the mice and tumor volume and proliferation rate were investigated.

Row | Substance | proliferation rate (orthotopic glioblastoma) | tumor volume (orthotopic glioblastoma) | viability of glioblastoma cell line [1] | early and late apoptosis [2] | DNA damage as measured by expression of pH2Ax [3] | viability of colorectal carcinoma cell line [4] | number and viability of glioblastoma colonies (glioblastoma colonies) | number and viability of colorectal cancer colonies [5] | DNA damage as measured by expression of pH2Ax [6] | tumor volume [7]
1 | TP5 scrambled: scrambled TP5 peptide (SEQ ID NO: 2) used as a control (FWDRCLSGKMSSKGGGINAYARAARRAARR) [reference compound] | but not TP5 scrambled decreases the tumor volume and proliferation rate | but not TP5 scrambled decreases the tumor volume | but not TP5 scrambled decreased the viability of glioblastoma cell line |  |  |  |  |  |  | 
2 | TP5: P5, a small peptide that selectively inhibits aberrant and hyperactive CDK5/p25, modified to facilitate passage through blood brain barrier; SEQ ID NO: 1 (KEAFWDRCLSVINLMSSKMLQINAYARAARRAARR) | decreases the tumor volume and proliferation rate | decreases the tumor volume | decreased the viability of glioblastoma cell line in a dose-dependent manner | increases the early and late apoptosis of glioblastoma cells | increases DNA damage in colorectal carcinoma cell line HT29 in a dose-dependent manner | decreased the viability of glioblastoma cell line in a dose-dependent manner | decreased the number and viability of glioblastoma colonies in a dose-dependent manner | decreased the number and viability of colorectal cancer colonies in a dose-dependent manner | increases DNA damage in glioblastoma cell line U251 in a dose-dependent manner | decreased the tumor volume of the mice
